Source: ChEMBL document CHEMBL3621050, “Activity and anion inhibition studies of the α-carbonic anhydrase from Thiomicrospira crunogena XCL-2 Gammaproteobacterium” (Bioorg Med Chem Lett, 2015)

Columns and labels:
[1] = Inhibition of Vibrio cholerae alpha-carbonic anhydrase by [18O]-exchange mass spectroscopy
[2] = target: T1, Carbonic anhydrase, alpha family (Thiomicrospira crunogena, UniProt Q31FD6); assay: Inhibition of Thiomicrospira crunogena XCL-2 alpha-carbonic anhydrase expressed in Escherichia coli BL21 (DE3) cells by [18O]-exchange mass spectroscopy
T1 sequence (Q31FD6 whole entry): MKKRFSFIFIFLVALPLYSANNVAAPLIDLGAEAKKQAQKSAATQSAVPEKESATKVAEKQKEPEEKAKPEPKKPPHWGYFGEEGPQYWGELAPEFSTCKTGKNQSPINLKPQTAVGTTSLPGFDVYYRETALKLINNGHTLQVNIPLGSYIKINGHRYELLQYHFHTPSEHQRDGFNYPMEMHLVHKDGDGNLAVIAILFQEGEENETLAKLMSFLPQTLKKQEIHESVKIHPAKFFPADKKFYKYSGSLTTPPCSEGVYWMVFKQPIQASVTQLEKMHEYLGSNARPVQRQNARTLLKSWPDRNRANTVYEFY

[3] = Inhibition of Sulfurihydrogenibium azorense alpha-carbonic anhydrase by [18O]-exchange mass spectroscopy
[4] = Inhibition of Sulfurihydrogenibium yellowstonense YO3AOP1 alpha-carbonic anhydrase by [18O]-exchange mass spectroscopy

**Q.** Which results are given for `I` [IODIDE]?
**A.** Ki [1]: 9730 µM; Ki [2]: 53000 µM; Ki [3]: 870 µM; Ki [4]: 860 µM

**Q.** Which Ki [1] does the source give for `Cl` [HYDROCHLORIC ACID] here?
**A.** 930 µM

**Q.** And the Ki [2]?
**A.** 361000 µM

**Q.** What about the Ki [3] of the same compound?
**A.** 850 µM

**Q.** What about the Ki [4] of the same compound?
**A.** 8300 µM

**Q.** Which results are given for `S` [HYDROGEN SULFIDE]?
**A.** Ki [1]: 74 µM; Ki [2]: 1.1 µM; Ki [3]: 380 µM; Ki [4]: 580 µM

**Q.** Which Ki [1] does the source give for `Br` [BROMIDE] here?
**A.** 28000 µM

**Q.** And the Ki [2]?
**A.** 242000 µM

**Q.** What about the Ki [3] of the same compound?
**A.** 940 µM

**Q.** And the Ki [4]?
**A.** 49000 µM
